We go through 17 molecules from patent publication US8247442B2, “Benzenesulfonamide compounds and their use” (Purdue Pharma L.P., priority 2006, dated 2012).

The target in assay [1] is T1, recombinant rat L-type calcium channel (LTCC) subunits (α1c, α2δ, and β1) (Rattus norvegicus, UniProt P22002).
T1 construct: expressed in transfected cells; pcDNA6.2DEST α1c, pcDNA3.2DEST β1, pcDNA3.1-Zeo α2δ)
Nature of the assay: FLIPR calcium mobilization assay for L-type calcium channel. It counts as cell-based. To be noted: calcium mobilization in vitro assay; HEK293 cells stably expressing LTCC, 90 mM KCl. How it is done:
Recombinant human embryonal kidney cells (HEK293, ATCC) stably transfected with either N-type calcium channel (NTCC) subunits (α1b, α2δ, and β3) or L-type calcium channel (LTCC) subunits (α1c, α2δ, and β1) were routinely cultured in growth medium consisting of Dulbecco's Modified Eagles Medium containing 10% FBS, 100 U/mL penicillin, 100 μg/mL streptomycin, 4 mM L-glutamine, 500 μg/mL geneticin (G418), 20 μg/mL Blasticidin S (InVivogen, San Diego, Calif.) and 500 μg/mL zeocin (InVivogen).
FLIPR Calcium Mobilization Assay for L-type Calcium Channel. One day prior to performing this assay, HEK293 cells stably expressing recombinant rat L-type calcium channel (LTCC) subunits (α1c, α2δ, and β1) were trypsinized, then seeded on poly-D-lysine-coated 96-well clear-bottom black plates (Becton Dickinson, Franklin Lakes, N.J.) at 75,000 cells/well. On the day of the assay, the plates were washed with LTCC wash buffer (127 mM NaCl, 2 mM MgCl2, 700 μM NaH2PO4, 5 mM CaCl2, 5 mM NaHCO3, 8 mM HEPES, 10 mM glucose, pH 7.4), then loaded with 0.1 mL of LTCC wash buffer containing Fluo-4 (3 μM final concentration, Molecular Probes, Eugene, Oreg.). After 1 hour, the cells were washed with 0.1 mL LTCC wash buffer and resuspended in 0.05 mL LTCC assay buffer (same composition as LTCC wash buffer). Plates were then transferred to a FLIPR^96 for assay. The FLIPR measured basal Fluo-4 fluorescence for 15 seconds, then added 0.05 mL of each compound tested diluted in LTCC assay buffer at final concentrations ranging from about 846 pM to about 17 μM. Fluo-4 fluorescence was then measured for 5 minutes. 0.1 mL KCl agonist dissolved in LTCC assay buffer was then added to the cells to produce a final concentration of 90 mM KCl, and fluorescence was measured for another 45 seconds. Data were collected over the entire time course and analyzed using Excel, Graph Pad Prism, or an in-house regression analysis software.
L-type Recombinant Cell Line Development. L-type calcium channel expressing HEK-293 cells were created in two stages. Stage 1 was created as follows. The rat α1c, and β1 cDNA expression constructs (2.5 μg each) were co-transfected into human embryonic kidney (HEK-293) cells by Lipofectamine Plus reagent (Invitrogen), as per manufacturer's instructions. 24 hours later, cells were split in limiting dilution into multiple 96-well plates in selection media containing 20 μg/mL blasticidin and 500 μg/mL geneticin, and incubated for 3 weeks at 37° C., 5% CO2, 95% humidity. Plates containing ≦1 clone per well were cultured until wells positive for single clones were confluent. Individual clones were then arrayed into columns of a destination 96-well plate, and partly split into 6-well plates for culture maintenance. Array plates were washed once with LTCC wash (or assay) buffer and cells loaded for 1 hour with 0.1 mL of LTCC buffer containing Fluo-4 (3 μM final concentration, Molecular Probes). Then they were washed twice with 0.1 mL of LTCC buffer, and replaced with 0.1 mL LTCC buffer. Plates were then transferred to a FLIPR^96 for assay. The FLIPR measured basal Fluo-4 fluorescence for 315 seconds, then added 0.1 mL KCl agonist dissolved in LTCC buffer and measured fluorescence for another 45 seconds. Final KCl concentration was 90 mM. Data were collected over the entire time course and analyzed using Excel, Graph Pad Prism, or Activity Base software. The clone with the greatest signal-to-noise ratio, best stability of response with passage number, and best adhesion to PDL precoated plates (Becton Dickinson) was expanded, characterized and used for stage 2 cell line development.
Stage 2 of L-type cell line development was carried out as follows. The rat α2δ cDNA expression construct (5 μg each) was transfected into the stage 1 L-type clonal cell line by Lipofectamine Plus reagent (Invitrogen), as per manufacturer's instructions. […]

Assay [2] concerns the target T2, N-type calcium channel (NTCC) (Homo sapiens, UniProt Q00975).
T2 construct: endogenous in cells; host or cells: IMR32 cells (ATCC), differentiated with dibutyryl cAMP and bromodeoxyuridine
Nature of the assay: FLIPR calcium mobilization assay for N-type calcium channel. It counts as cell-based. The conditions noted are these: calcium mobilization in vitro assay; differentiated IMR32 cells, 90 mM KCl, 5 μM nitrendipine. The method, then:
Cell maintenance and differentiation. Unless noted otherwise, cell culture reagents were purchased from Mediatech of Hemdon, Md. IMR32 cells (American Type Culture Collection, ATCC, Manassas, Va.) were routinely cultured in growth medium consisting of minimum essential medium containing 10% fetal bovine serum (FBS, Hyclone, Logan, Utah), 100 U/mL penicillin, 100 μg/mL streptomycin, 2 mM L-glutamine, 1 mM sodium pyruvate, and 1×MEM non-essential amino acids. 80-90% confluent flasks of cells were differentiated using the following differentiation medium: Growth medium plus 1 mM dibutyryl cyclic AMP (Sigma, St. Louis, Mo.), and 2.5 μM bromodeoxyuridine (Sigma). Cells were differentiated for 8 days by replacing differentiation medium every 2-3 days.
FLIPR Calcium Mobilization Assay for N-type Calcium Channel. One day prior to performing this assay, differentiated IMR32 cells were treated with 1× CellStripper, and seeded on poly-D-lysine-coated 96-well clear-bottom black plates (Becton Dickinson, Franklin Lakes, N.J.) at 200,000 cells/well. On the day of the assay, the cell plates were washed with IMR32 buffer (127 mM NaCl, 1 mM KCl, 2 mM MgCl2, 700 μM NaH2PO4, 5 mM CaCl2, 5 mM NaHCO3, 8 mM HEPES, 10 mM glucose, pH 7.4), then pre-stimulated with KCl and loaded as follows: 0.05 mL of IMR32 buffer, 0.05 mL of each compound tested diluted in IMR32 buffer containing 20 μM nitrendipine (Sigma), and 0.1 mL KCl dissolved in IMR32 buffer, plus Fluo-4 were added (3 μM final concentration, Molecular Probes, Eugene, Oreg.). Final test compound concentrations ranged from about 846 μM to about 17 μM, final nitrendipine concentration was 5 μM, and final KCl concentration was 90 mM. After 1 hour, the cells were washed twice with 0.05 mL of each compound tested in nitrendipine-containing IMR32 buffer (no KCl or Fluo-4), and then replaced with 0.1 mL of each compound tested in nitrendipine-containing IMR32 buffer. Plates were then transferred to a Fluorimetric Imaging Plate Reader (FLIPR^96, Molecular Devices, Inc., Sunnyvale, Calif.) for assay. The FLIPR measured basal Fluo-4 fluorescence for 315 seconds (i.e., 5 minutes and 15 seconds), then added 0.1 mL KCl agonist dissolved in IMR32 buffer and measured fluorescence for another 45 seconds. Final test compound concentrations on the cells after FLIPR read ranged from about 846 μM to about 17 μM, final nitrendipine concentration was 5 μM, and final KCl concentration was 90 mM. Data were collected over the entire time course and analyzed using Excel, Graph Pad Prism (version 3.02, Graph Pad, San Diego, Calif.), or an in-house non-linear regression analysis software.

Where only a bound is given, the exact number is not on record here.

T1 sequence (P22002 whole entry): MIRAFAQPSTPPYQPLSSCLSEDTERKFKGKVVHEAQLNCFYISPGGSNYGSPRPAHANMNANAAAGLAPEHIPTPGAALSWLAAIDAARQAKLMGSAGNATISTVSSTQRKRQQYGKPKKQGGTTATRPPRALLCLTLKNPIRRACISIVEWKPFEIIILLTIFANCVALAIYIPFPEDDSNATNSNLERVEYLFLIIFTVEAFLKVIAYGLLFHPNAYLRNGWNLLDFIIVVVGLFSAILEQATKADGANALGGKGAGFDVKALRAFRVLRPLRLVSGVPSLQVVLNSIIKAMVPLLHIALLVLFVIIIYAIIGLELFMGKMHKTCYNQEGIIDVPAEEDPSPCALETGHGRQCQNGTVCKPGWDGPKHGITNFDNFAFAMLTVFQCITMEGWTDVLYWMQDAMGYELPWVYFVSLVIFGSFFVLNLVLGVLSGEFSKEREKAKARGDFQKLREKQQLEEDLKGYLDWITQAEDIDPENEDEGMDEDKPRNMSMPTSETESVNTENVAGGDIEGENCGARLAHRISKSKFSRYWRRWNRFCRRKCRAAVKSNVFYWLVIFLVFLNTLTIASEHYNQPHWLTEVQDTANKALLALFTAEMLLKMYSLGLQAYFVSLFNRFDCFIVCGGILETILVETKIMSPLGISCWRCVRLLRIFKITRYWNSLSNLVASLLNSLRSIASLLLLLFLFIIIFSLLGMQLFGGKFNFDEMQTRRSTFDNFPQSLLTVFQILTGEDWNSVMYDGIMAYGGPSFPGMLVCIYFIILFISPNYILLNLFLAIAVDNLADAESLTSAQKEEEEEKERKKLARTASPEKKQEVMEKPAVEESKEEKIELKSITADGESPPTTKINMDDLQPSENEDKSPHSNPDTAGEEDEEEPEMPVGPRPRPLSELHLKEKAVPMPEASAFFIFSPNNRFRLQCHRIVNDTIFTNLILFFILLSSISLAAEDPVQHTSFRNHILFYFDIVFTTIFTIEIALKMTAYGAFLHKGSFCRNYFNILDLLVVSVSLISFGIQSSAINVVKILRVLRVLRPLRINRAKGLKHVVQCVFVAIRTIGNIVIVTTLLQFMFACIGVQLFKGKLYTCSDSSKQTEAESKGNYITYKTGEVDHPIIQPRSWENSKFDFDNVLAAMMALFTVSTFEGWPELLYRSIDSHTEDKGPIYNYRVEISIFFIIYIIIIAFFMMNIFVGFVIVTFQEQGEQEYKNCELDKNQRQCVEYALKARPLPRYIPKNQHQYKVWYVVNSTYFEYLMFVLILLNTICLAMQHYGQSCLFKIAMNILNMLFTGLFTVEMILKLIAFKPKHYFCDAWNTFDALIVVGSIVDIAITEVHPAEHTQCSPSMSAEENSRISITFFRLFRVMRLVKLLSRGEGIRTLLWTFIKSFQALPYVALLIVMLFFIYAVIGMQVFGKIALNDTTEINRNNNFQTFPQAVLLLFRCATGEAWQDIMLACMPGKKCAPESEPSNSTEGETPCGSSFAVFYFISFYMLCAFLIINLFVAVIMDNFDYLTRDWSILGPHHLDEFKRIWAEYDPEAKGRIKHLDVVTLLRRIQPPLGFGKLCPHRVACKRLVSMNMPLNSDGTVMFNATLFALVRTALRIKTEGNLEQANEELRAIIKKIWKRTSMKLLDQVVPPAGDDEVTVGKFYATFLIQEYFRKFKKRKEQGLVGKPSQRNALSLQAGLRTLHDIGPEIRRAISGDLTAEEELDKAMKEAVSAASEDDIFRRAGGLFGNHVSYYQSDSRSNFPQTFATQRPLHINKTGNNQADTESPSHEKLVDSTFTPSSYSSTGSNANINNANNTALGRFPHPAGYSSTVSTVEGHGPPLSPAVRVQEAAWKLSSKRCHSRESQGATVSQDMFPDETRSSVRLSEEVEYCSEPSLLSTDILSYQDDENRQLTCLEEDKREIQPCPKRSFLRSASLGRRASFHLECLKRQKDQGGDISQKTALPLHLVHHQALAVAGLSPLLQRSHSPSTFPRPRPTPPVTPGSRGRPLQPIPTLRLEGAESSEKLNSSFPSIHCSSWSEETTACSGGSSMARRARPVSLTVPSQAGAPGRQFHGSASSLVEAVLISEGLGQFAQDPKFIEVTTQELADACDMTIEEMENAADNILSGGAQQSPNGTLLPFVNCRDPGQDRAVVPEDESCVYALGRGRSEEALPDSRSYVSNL
T1 sequence (P54290 25-944 partner): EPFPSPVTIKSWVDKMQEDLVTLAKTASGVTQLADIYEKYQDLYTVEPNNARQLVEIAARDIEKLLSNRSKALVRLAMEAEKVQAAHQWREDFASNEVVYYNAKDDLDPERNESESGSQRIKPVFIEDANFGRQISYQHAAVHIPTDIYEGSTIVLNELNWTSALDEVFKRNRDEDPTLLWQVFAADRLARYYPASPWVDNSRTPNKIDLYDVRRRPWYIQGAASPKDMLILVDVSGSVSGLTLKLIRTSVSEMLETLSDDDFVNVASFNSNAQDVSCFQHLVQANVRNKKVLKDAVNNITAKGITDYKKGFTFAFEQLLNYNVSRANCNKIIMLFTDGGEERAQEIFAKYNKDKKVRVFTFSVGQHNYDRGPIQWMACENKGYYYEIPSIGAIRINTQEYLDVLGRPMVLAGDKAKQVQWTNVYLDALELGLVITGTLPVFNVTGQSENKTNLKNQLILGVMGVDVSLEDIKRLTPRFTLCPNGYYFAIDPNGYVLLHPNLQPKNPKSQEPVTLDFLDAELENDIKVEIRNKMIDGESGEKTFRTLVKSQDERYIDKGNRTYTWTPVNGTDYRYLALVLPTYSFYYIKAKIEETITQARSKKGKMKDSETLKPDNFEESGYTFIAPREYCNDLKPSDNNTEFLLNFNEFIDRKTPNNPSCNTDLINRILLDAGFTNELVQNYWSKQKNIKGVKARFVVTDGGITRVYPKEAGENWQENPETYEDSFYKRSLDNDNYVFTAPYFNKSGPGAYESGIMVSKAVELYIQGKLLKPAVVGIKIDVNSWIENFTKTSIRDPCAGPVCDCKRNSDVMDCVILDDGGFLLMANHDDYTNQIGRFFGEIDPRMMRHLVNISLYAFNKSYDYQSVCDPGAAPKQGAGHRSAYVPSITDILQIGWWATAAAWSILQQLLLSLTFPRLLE
T1 sequence (P54290 945-1091 partner): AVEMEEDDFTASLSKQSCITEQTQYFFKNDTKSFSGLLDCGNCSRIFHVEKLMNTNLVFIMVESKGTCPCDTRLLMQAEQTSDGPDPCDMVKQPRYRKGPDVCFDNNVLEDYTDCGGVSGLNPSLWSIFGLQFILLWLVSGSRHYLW
T1 sequence (P54283 whole entry partner): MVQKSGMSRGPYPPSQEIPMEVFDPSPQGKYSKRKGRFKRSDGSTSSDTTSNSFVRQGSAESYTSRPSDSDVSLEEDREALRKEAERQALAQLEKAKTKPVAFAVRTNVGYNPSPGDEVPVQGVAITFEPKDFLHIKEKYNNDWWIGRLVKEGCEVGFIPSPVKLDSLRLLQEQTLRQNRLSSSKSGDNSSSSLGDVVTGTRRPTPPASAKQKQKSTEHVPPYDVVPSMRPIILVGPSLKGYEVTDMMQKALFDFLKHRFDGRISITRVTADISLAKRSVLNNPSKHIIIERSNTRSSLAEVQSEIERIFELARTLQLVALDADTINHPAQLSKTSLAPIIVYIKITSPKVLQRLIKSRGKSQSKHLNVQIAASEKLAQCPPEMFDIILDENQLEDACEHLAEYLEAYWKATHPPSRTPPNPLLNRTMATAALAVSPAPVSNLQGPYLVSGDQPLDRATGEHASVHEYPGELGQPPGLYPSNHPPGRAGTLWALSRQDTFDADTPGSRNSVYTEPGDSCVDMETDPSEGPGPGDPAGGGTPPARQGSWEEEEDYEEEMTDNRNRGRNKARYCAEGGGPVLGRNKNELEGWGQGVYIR

For `CC(C)CNC(=O)CN1CCCC(N(C2CC2)S(=O)(=O)c2cccc(C(F)(F)F)c2)C1` (stereo not shown) [2-{3-[Cyclopropyl-(3-trifluoromethylbenzenesulfonyl)-amino]-piperidin-1-yl}-N-isobutyl-acetamide], the figures for the IC50 in assay [1] and in assay [2] were 9820 nM and 430 nM, respectively.
In the same order, the values of `O=C(CN1CCCC(N(C2CC2)S(=O)(=O)c2cccc(C(F)(F)F)c2)C1)Nc1ccc(F)cc1` (stereo not shown) [2-{3-[Cyclopropyl-(3-trifluoromethylbenzenesulfonyl)amino]-piperidin-1-yl}-N-(4-fluorophenyl)-acetamide] are 6180 nM and 360 nM.
In the same order, the values of `CCN[C@@H](CC(C)C)C(=O)N1CCCC(N(C2CC2)S(=O)(=O)c2cccc(C(F)(F)F)c2)C1` (stereo partly drawn) [(2S)N-Cyclopropyl-N-[1-(2-ethylamino-4-methylpentanoyl)piperidin-3-yl]-3-trifluoromethylbenzenesulfonamide] are 5070 nM and 130 nM.
In the case of `CC(C)C[C@H](NC(C)C)C(=O)N1CCCC(N(C2CC2)S(=O)(=O)c2cccc(C(F)(F)F)c2)C1` (stereo partly drawn) [(2S)N-Cyclopropyl-N-[1-(2-isopropylamino-4-methylpentanoyl)piperidin-3-yl]-3-trifluoromethylbenzenesulfonamide], in assay [2], the IC50 came out at 210 nM.
With `CN[C@@H](CC(C)C)C(=O)N1CCCC(N(C2CC2)S(=O)(=O)c2cccc(C(F)(F)F)c2)C1` (stereo partly drawn) [(2S)N-Cyclopropyl-N-[1-(4-methyl-2-methylaminopentanoyl)-piperidin-3-yl]-3-trifluoromethylbenzenesulfonamide], the IC50 came to 6580 nM in assay [1] and 540 nM in assay [2].
For the molecule `CC(C)CCN[C@@H](CC(C)C)C(=O)N1CCCC(N(C2CC2)S(=O)(=O)c2cccc(C(F)(F)F)c2)C1` (stereo partly drawn) [(2S)N-Cyclopropyl-N-{1-[2-(3-methylbutyl)amino-4-methylpentanoyl]piperidin-3-yl}-3-trifluoromethylbenzenesulfonamide], in assay [2], the IC50 is 360 nM.
As for `CC(C)C[C@H](N)C(=O)N1CCCC(N(C2CC2)S(=O)(=O)c2cccc(C(F)(F)F)c2)C1` (stereo partly drawn) [(2S)N-[1-(2-Amino-4-methylpentanoyl)piperidin-3-yl]-N-cyclopropyl-3-trifluoromethylbenzenesulfonamide], the IC50 is 6580 nM in assay [1] and 1100 nM in assay [2].
In the same order, the values of `CC(C)C[C@H](N)CC(=O)N1CCCC(N(C2CC2)S(=O)(=O)c2cccc(C(F)(F)F)c2)C1` (stereo partly drawn) [(2S)N-[1-(3-Amino-5-methylhexanoyl)piperidin-3-yl]-N-cyclopropyl-3-trifluoromethylbenzenesulfonamide] are 500 nM and 280 nM.
For `O=C(CN1CCC(NS(=O)(=O)c2cccc(C(F)(F)F)c2)C1)Nc1ccc(F)cc1` (stereo not shown) [N-(4-Fluorophenyl)-2-[3-(3-trifluoromethylbenzenesulfonylamino)-pyrrolidin-1-yl]acetamide], in assay [2], the IC50 worked out at 1680 nM.
For `O=C(CNCc1cccnc1)N1CCCC(N(C2CC2)S(=O)(=O)c2cccc(C(F)(F)F)c2)C1` (stereo not shown) [N-Cyclopropyl-N-(1-{2-[(pyridin-3-ylmethyl)amino]acetyl}-piperidin-3-yl)-3-trifluoromethylbenzenesulfonamide], the IC50 was greater than 20000 nM in assay [1] and 1200 nM in assay [2].
With `O=S(=O)(c1cccc(C(F)(F)F)c1)N(C1CC1)C1CCCN(CCCN(c2ccc(F)cc2)c2ccc(F)cc2)C1` (stereo not shown) [N-Cyclopropyl-N-(1-{3-[bis-(4-fluorophenyl)amino]propyl}piperidin-3-yl)-3-trifluoromethylbenzenesulfonamide], the IC50 in assay [2] was 2220 nM.
For `CC(C)CNCC(=O)N1CCCC(N(C2CC2)S(=O)(=O)c2cccc(C(F)(F)F)c2)C1` (stereo not shown) [N-Cyclopropyl-N-[1-(2-isobutylaminoacetyl)piperidin-3-yl]-3-trifluoromethylbenzenesulfonamide], the IC50 in assay [1] worked out at 5750 nM; in assay [2], 690 nM.
As for `CC(C)CNCCC(=O)N1CCCC(N(C2CC2)S(=O)(=O)c2cccc(C(F)(F)F)c2)C1` (stereo not shown) [N-Cyclopropyl-N-[1-(3-isobutylaminopropionyl)piperidin-3-yl]-3-trifluoromethylbenzenesulfonamide], the IC50 in assay [1] came to 5630 nM; in assay [2] it was 820 nM.
Consider `CC(C)NCCC(=O)N1CCCC(N(C2CC2)S(=O)(=O)c2cccc(C(F)(F)F)c2)C1` (stereo not shown) [N-Cyclopropyl-N-[1-(3-isopropylaminopropionyl)piperidin-3-yl]-3-trifluoromethylbenzenesulfonamide], for which the figures for the IC50 in assay [1] and in assay [2] were 8770 nM and 630 nM, respectively.
In the same order, the values of `COc1ccc(CNCC(=O)N2CCCC(N(C3CC3)S(=O)(=O)c3cccc(C(F)(F)F)c3)C2)cc1` (stereo not shown) [N-Cyclopropyl-N-{1-[2-(4-methoxybenzylamino)acetyl]-piperidin-3-yl}-3-trifluoromethylbenzenesulfonamide] are 4650 nM and 420 nM.
On to `O=C(CCNCCO)N1CCCC(N(C2CC2)S(=O)(=O)c2cccc(C(F)(F)F)c2)C1` (stereo not shown) [N-Cyclopropyl-N-{1-[3-(2-hydroxyethylamino)propionyl]piperidin-3-yl}-3-trifluoromethylbenzenesulfonamide], for which the concentration for half-maximal inhibition (IC50) in assay [2] came to 2830 nM.
The same measure, in the same setting: to “(2S)N-Cyclopropyl-N-[1-(2-methylcarbonylpropylamino-4-methylpentanoyl)piperidin-3-yl]-3-trifluoromethylbenzenesulfonamide” belongs 510 nM.
